In paper PMC12587552, “A nitrogen-containing diphyllin derivative C156-P1 exhibited broad-spectrum antiviral activity against Flaviviridae viruses by preventing endosomal acidification” (Antimicrobial Agents and Chemotherapy, 2025):
Where two headings read alike, the source gives them in different places.

Tests used:
DENV-3 = test: microbe, parasite or virus in culture; assay type: cell-based, DENV-3 clone DV3syn_4M; details: Dengue virus, read-out: EC50 against DENV-3
DENV-4 = DENV-4 infection, immunofluorescence assay; assay type: cell-based; details: Dengue virus, read-out: EC50 against DENV-4
JEV = test: organism not typed; assay type: cell-based, JEV strain SA14-14-2; details: read-out: EC50 against JEV
YFV = test: microbe, parasite or virus in culture; assay type: cell-based, YFV vaccine strain 17D; details: Yellow fever virus, read-out: EC50 against YFV
HSV-1-eGFP = test: microbe, parasite or virus in culture; assay type: cell-based, herpes simplex virus type 1; details: Human alphaherpesvirus 1, A549, 48 h, read-out: EC50 against HSV-1-eGFP
SeV = assay type: cell-based, Sendai virus
DENV-2 [1] = test: DENV-2 infection in AG129 mice; assay type: in vivo; details: 0.2 mg/kg i.p.
V-ATPase = V-ATPase (Homo sapiens, UniProt Q9Y487); test: ATPase activity assay on lysate of treated cells; assay type: cell-based; details: A549 cells treated 24 h; C156-P1 100 nM or 1000 nM, PHY34 100 nM, Baf-A1 100 nM; 2 µg total cell protein
Chain of V-ATPase (Q9Y487 whole entry, looked up): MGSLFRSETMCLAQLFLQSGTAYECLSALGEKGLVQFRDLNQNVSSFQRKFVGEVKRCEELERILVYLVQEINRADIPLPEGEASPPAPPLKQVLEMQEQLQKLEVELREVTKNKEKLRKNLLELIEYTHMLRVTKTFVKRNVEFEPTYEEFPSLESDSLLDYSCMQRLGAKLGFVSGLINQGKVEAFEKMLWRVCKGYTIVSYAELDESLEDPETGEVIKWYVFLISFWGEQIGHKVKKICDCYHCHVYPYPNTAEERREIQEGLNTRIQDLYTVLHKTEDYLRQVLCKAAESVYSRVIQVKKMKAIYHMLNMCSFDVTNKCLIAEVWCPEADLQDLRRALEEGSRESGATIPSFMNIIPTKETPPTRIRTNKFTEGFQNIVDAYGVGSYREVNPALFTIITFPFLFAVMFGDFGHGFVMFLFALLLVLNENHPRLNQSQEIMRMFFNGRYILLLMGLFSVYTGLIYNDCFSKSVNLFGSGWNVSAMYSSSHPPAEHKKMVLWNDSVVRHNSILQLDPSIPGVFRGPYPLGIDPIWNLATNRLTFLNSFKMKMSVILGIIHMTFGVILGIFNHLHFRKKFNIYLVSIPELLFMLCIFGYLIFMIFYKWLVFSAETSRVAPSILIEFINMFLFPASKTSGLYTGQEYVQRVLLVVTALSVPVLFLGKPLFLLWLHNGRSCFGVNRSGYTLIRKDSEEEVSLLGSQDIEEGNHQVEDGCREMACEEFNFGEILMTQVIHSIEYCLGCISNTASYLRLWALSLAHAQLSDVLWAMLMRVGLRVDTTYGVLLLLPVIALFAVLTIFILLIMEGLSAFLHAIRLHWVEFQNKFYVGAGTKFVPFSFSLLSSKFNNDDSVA

ATP6V0A2 = ATP6V0A2 mRNA level by RT-qPCR; assay type: cell-based, human
DENV-2, ZIKV, and JEV = test: Viral binding and internalization assays; assay type: cell-based; details: A549 cells, MOI 2, viral RNA by RT-qPCR
DENV-2 [2] = test: Time-of-drug-addition assay; assay type: cell-based, DENV-2 strain 16681; details: A549 cells, DENV-2 MOI 2, 50 nM, 48 hpi
ZIKV, JEV, and YFV = test: organism not typed; assay type: cell-based; details: read-out: EC50 against ZIKV, JEV, and YFV, bound stated
DENV-2 [3] = test: Colocalization of DENV E protein and Rab7A, confocal microscopy; assay type: cell-based, DENV-2 strain 16681; details: A549 cells, DENV-2 MOI = 20, 50 nM, 12 h
DENV-2 [4] = details: for SI (ratio of CC50 to EC50): DENV-2
HUVEC cells = details: human
in vitro = details: African green monkey
DENV-2 [5] = test: microbe, parasite or virus in culture; details: Dengue virus

COc1cc2c(OCC#N)c3c(c(-c4ccc5c(c4)OCO5)c2cc1OC)C(=O)OC3 [Compound C156-P1]
EC50 (DENV-3; DENV3, A549, 48 h): 4.84 nM | EC50 (DENV-3; DENV3, Vero, 48 h): 4.93 nM | EC50 (DENV-4; DENV4, A549, 48 h): 5.31 nM | EC50 (DENV-4; DENV4, Vero, 48 h): 5.53 nM | EC50 (JEV; A549, 48 h): 2.63 nM | EC50 (JEV; Vero, 48 h): 2.84 nM | EC50 (YFV; A549, 48 h): 5.54 nM | EC50 (YFV; Vero, 48 h): 3.94 nM | EC50 (HSV-1-eGFP): 6.21 nM | Inhibition of SeV infection (viral NP mRNA) (SeV): did not inhibit SeV infection | Body weight of DENV-2-infected mice (DENV-2 [1]): mitigated the decline in body weight | DENV-2 RNA load in blood (DENV-2 [1]; days 3, 5, and 7 post-infection, RT-qPCR): markedly decreased DENV-2 in the blood | Survival rate (DENV-2 [1]; DENV-2 1 × 10^6 PFU i.p., until day 15): 60% | V-ATPase activity (V-ATPase): significantly reduced V-ATPase activity | ATP6V0A2 mRNA expression (ATP6V0A2): decrease in ATP6V0A2 mRNA expression | Effect on internalization or binding steps of DENV-2, ZIKV, and JEV (DENV-2, ZIKV, and JEV): did not exhibit inhibitory effects | Intracellular viral RNA, NS3 protein and extracellular titers, before-, during- and after-incubation groups versus DMSO (DENV-2 [2]): significantly reduced levels | EC50 (ZIKV, JEV, and YFV): < 6 nM | Colocalization between DENV E protein and Rab7A (DENV-2 [3]): significantly enhanced the colocalization between DENV E protein and Rab7A | SI (ratio of CC50 to EC50) (DENV-2 [4]; A549 cells): 292.65 | Extracellular DENV-2 viral titers versus DMSO (DENV-2 [4]; A549 cells, MOI = 2, 50 nM, 24, 36, and 48 hpi, focus-forming assay): significantly decreased | DENV-2 infection (NS3 protein, Western blot) (DENV-2 [4]; A549 cells, MOI = 2, 48 h, indicated concentrations): decreased with increasing concentrations of C156-P1 | SI (ratio of CC50 to EC50) (DENV-2 [4]; HUVEC cells): 142.42 | SI (ratio of CC50 to EC50) (DENV-2 [4]; Huh7 cells): 110.09 | SI (ratio of CC50 to EC50) (DENV-2 [4]; Vero cells): 113.94 | Concentration tolerable for cytotoxicity (HUVEC cells): < 62.5 nM | CC50 (in vitro): 431 nM | EC50 (DENV-2 [5]; DENV2, A549, 48 h, read-out: EC50 against DENV-2): 1.36 nM | EC50 (DENV-2 [5]; DENV2, HUVEC, 48 h, read-out: EC50 against DENV-2): 1.28 nM | EC50 (DENV-2 [5]; DENV2, Huh-7, 48 h, read-out: EC50 against DENV-2): 4.45 nM | EC50 (DENV-2 [5]; DENV2, Vero, 48 h, read-out: EC50 against DENV-2): 3.78 nM | EC50 (DENV-2 [5]; DENV2, read-out: EC50 against DENV-2, bound stated in text): < 5 nM
